target: T1, androgen receptor (AR) (Homo sapiens, UniProt P10275); assay: Degradation of androgen receptor (AR) protein in VCaP cells by Western blot; type: cell-based; settings: percentage of degraded AR at 100 nM, VCaP cells, 16 h
T1 sequence (P10275 1-920): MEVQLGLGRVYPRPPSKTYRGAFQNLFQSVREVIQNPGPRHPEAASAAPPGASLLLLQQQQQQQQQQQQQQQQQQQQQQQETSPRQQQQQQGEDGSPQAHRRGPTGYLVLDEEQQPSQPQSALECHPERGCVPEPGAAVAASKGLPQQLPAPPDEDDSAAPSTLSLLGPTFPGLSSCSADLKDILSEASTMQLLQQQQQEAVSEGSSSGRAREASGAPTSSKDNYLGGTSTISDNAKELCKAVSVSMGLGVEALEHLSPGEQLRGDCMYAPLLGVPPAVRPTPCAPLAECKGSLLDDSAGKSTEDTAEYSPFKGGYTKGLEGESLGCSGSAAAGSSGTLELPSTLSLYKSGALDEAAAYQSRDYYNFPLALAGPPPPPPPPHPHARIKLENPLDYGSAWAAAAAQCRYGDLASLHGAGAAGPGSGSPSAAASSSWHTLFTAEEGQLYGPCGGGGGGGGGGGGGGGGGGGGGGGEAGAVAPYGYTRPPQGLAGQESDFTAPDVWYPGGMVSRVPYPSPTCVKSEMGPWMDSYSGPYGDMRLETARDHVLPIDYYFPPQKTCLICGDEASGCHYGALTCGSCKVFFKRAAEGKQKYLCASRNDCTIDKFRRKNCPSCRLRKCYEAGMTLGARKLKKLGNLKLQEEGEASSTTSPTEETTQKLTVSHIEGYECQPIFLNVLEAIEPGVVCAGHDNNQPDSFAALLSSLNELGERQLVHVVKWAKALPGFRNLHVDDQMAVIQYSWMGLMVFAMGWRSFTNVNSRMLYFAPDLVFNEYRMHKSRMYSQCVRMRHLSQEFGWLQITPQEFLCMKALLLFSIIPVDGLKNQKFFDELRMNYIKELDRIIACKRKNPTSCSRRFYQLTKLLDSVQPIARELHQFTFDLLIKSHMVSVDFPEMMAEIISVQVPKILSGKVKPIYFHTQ
Procedure: Determination of the Degradation Activity of the Compound on Androgen Receptor (AR) Protein by Western Blot
1) VCaP cells were subcultured in cell culture media, and then the cells in good growth condition were seeded in a 12-well plate at 1 ml/well (5×10^5 cells/well), and cultured overnight in a 37° C., 5% CO2 cell incubator. 2) The test compound was prepared into a 10 mM stock solution with dimethyl sulfoxide (DMSO). Prior to use, the solution was diluted 3 times with DMSO. […] of the diluted compound solution was added to the cell culture well (ensuring that the DMSO concentration in the culture system was 0.1%), and two wells were set for each concentration. The plate was gently shaken to mix. In addition, the experiment included negative control wells (containing equal amount of DMSO) and positive control wells. 3) After culturing 16 h. the cells were lysed with RIPA cell lysate, and the protein was extracted. The protein concentration was measured with BCA kit. 5-fold concentrated protein loading buffer was added, and after heated at 100° C. for 5 min. the sample was stored at −20° C. 4) for each well, 30 μg of protein was loaded on polyacrylamide gel for electrophoresis. 5) The protein was transferred from polyacrylamide gel to PVDF membrane, and then 5% skim milk was added to close for 1 h at room temperature. The first antibody (Androgen Receptor (D6F11) XP Rabbit mAb and Anti-β-Actin Rabbit mAb) was added and incubated overnight at 4° C. The membrane was washed with TBST solution three times. 10 min for each time. The secondary antibody (horseradish peroxidase labeled goat […]) was added and incubated at room temperature for 2 h, and then the membrane was washed with TBST solution three times. 10 min for each time.
Finally, ECL chemiluminescence solution was added, and then photos were taken with automatic chemiluminescence instrument to collect pictures for analysis.

Structure (SMILES)	inhibition at 0.1 µM [%]
CC1(C)[C@H](NC(=O)c2ccc(N3CC4CN(C5CCN(c6cc7c(cc6F)C(=O)N(C6CCC(=O)NC6=O)C7=O)CC5)CC4C3)nn2)C(C)(C)[C@H]1Oc1ccc(C#N)c(Cl)c1 (some centres unmarked) [Compound 72, N-((1r,3r)-3-(3-chloro-4-cyanophenoxy)-2,2,4,4-tetramethylcyclobutyl)-6-(5-(1-(2-(2,6-dioxopiperidin-3-yl)-6-fluoro-1,3-dioxoisoindolin-5-yl)piperidine-4-yl)hexahydropyrrolo[3,4-c]pyrrol-2(1H)-yl)pyridazine-3-formamide]	25 to 49
N#Cc1ccc(O[C@H]2CC[C@H](NC(=O)c3ccc(N4CCC(CN5CCC6(CCN(c7cc8c(cc7F)C(=O)N(C7CCC(=O)NC7=O)C8=O)C6)C5)CC4)nn3)CC2)cc1Cl (some centres unmarked) [Compound 142, N-((1r,4r)-4-(3-chloro-4-cyanophenoxy)cyclohexyl)-6-(4-((7-(2-(2,6-dioxopiperidin-3-yl)-6-fluoro-1,3-dioxoisoindol-5-yl)-2,7-diazaspiro[4.4]nonan-2-yl)methyl)piperidin-1-yl)pyridazine-3-formamide]	> 80
N#Cc1ccc(O[C@H]2CC[C@H](NC(=O)c3ccc(N4CC5CN(C[C@@H]6[C@H]7CN(c8ccc9c(c8)C(=O)N(C8CCC(=O)NC8=O)C9=O)C[C@@H]67)CC5C4)nn3)CC2)cc1Cl (some centres unmarked) [Compound 100]	50 to 79
N#Cc1ccc(O[C@H]2CC[C@H](NC(=O)c3ccc(N4CCC5(CN(CC6CCN(c7cc8c(cc7F)C(=O)N(C7CCC(=O)NC7=O)C8=O)CC6)C5)C4)nn3)CC2)cc1Cl (some centres unmarked) [Compound 183, N-((1r,4r)-4-(3-chloro-4-cyanophenoxy)cyclohexyl)-6-(2-((1-(2-(2,6-dioxopiperidin-3-yl)-6-fluoro-1,3-dioxoisoindolin-5-yl)piperidine-4-yl)methyl)-2,6-diazaspiro[3.4]octan-6-yl)pyridazine-3-formamide]	> 80
N#Cc1ccc(O[C@H]2CC[C@H](NC(=O)c3ccc(N4CC5CN(CC6CN(c7cc8c(cc7F)C(=O)N(C7CCC(=O)NC7=O)C8=O)C6)CC5C4)nn3)CC2)cc1Cl (some centres unmarked) [Compound 160]	< 25
N#Cc1ccc(O[C@H]2CC[C@H](NC(=O)c3cnc(N4CCC5(CCN(C6CCN(c7cc8c(cc7F)C(=O)N(C7CCC(=O)NC7=O)C8=O)CC6)C5)C4)cn3)CC2)cc1Cl (some centres unmarked) [Compound 167, N-((1r,4r)-4-(3-chloro-4-cyanophenoxy)cyclohexyl)-5-(7-(1-(2-(2,6-dioxopiperidin-3-yl)-6-fluoro-1,3-dioxoisoindolin-5-yl)piperidine-4-yl)-2,7-diazaspiro[4.4]nonan-2-yl)pyrazine-2-carboxamide]	50 to 79
N#Cc1ccc(O[C@H]2CC[C@H](NC(=O)c3ccc(N4CCC(NC5CCN(c6ccc7c(c6)C(=O)N(C6CCC(=O)NC6=O)C7=O)CC5)CC4)cc3)CC2)cc1Cl (some centres unmarked) [Compound 302, N-((1r,4r)-4-(3-chloro-4-cyanophenoxy)cyclohexyl)-4-(4-((1-(2-(2,6-dioxopiperidin-3-yl)-1,3-dioxoisoindolin-5-yl)piperidine-4-yl)amino)piperidin-1-yl)benzamide]	< 25

Further lines, results first:

inhibition at 0.1 µM [%]	Structure (SMILES)
50 to 79	CC1(C)[C@H](Oc2ccc(C#N)c(Cl)c2)C(C)(C)[C@H]1N1Cc2nc(C#CC3CCN(CC4CCN(c5cc6c(cc5F)C(=O)N(C5CCC(=O)NC5=O)C6=O)CC4)CC3)ccc2C1=O (some centres unmarked) [Compound 333]
< 25	N#Cc1ccc(O[C@H]2CC[C@H](NC(=O)c3cnc(N4CCN([C@@H]5C[C@@H]6CN(c7ccc8c(c7)C(=O)N(C7CCC(=O)NC7=O)C8=O)C[C@@H]6C5)CC4)nc3)CC2)cc1Cl (stereo partly drawn) [Compound 300, N-((1r,4r)-4-(3-chloro-4-cyanophenoxy)cyclohexyl)-2-(4-((3aR,5R,6aS)-2-(2-(2,6-dioxopiperidin-3-yl)-1,3-dioxoisoindolin-5-yl)octahydrocyclopenta[c]pyrrol-5-yl)piperazin-1-yl)pyrimidine-5-carboxamide]
> 80	N#Cc1ccc(O[C@H]2CC[C@H](NC(=O)c3ccc(N4CC(N5CC6CN(c7cc8c(cc7F)C(=O)N(C7CCC(=O)NC7=O)C8=O)CC6C5)C4)nn3)CC2)cc1Cl (some centres unmarked) [Compound 223, N-((1r,4r)-4-(3-chloro-4-cyanophenoxy)cyclohexyl)-6-(3-(5-(2-(2,6-dioxopiperidin-3-yl)-6-fluoro-1,3-dioxoisoindolin-5-yl)hexahydropyrrolo[3,4-c]pyrrol-2(1H)-yl)azitidin-1-yl)pyridazine-3-carboxamide]
50 to 79	CC1(C)[C@H](Oc2ccc(C#N)c(Cl)c2)C(C)(C)[C@H]1N1Cc2nc(C#CC3CC(NC4CCN(c5cc6c(cc5F)C(=O)N(C5CCC(=O)NC5=O)C6=O)CC4)C3)ccc2C1=O (some centres unmarked) [Compound 329]
< 25	N#Cc1ccc(O[C@H]2CC[C@H](NC(=O)c3cnc(N4CCN([C@@H]5C[C@@H]6CN(c7ccc8c(c7)C(=O)N(C7CCC(=O)NC7=O)C8=O)C[C@@H]6C5)CC4)cn3)CC2)cc1Cl (stereo partly drawn) [Compound 296, N-((1r,4r)-4-(3-chloro-4-cyanophenoxy)cyclohexyl)-5-(4-((3aR,5R,6aS)-2-(2-(2,6-dioxopiperidin-3-yl)-1,3-dioxoisoindol-5-yl)octahydrocyclopenta [c]pyrrol-5-yl)piperazin-1-yl)pyrazine-2-carboxamide]
50 to 79	N#Cc1ccc(O[C@H]2CC[C@H](NC(=O)c3ccc(N4CCN(C(=O)O[C@H]5C[C@@H]6CN(c7cc8c(cc7F)C(=O)N(C7CCC(=O)NC7=O)C8=O)C[C@@H]6C5)CC4)nn3)CC2)cc1Cl (some centres unmarked) [Compound 290]
> 80	N#Cc1ccc(O[C@H]2CC[C@H](NC(=O)c3ccc(N4CC5(CCN(CC6CCN(c7cc8c(cc7F)C(=O)N(C7CCC(=O)NC7=O)C8=O)CC6)CC5)C4)nn3)CC2)cc1Cl (some centres unmarked) [Compound 232]
> 80	N#Cc1ccc(O[C@H]2CC[C@H](NC(=O)c3cnc(N4CCC(N5CC6(CCN(c7ccc8c(c7)C(=O)N(C7CCC(=O)NC7=O)C8=O)CC6)C5)CC4)cn3)CC2)cc1Cl (some centres unmarked) [Compound 229, N-((1r,4r)-4-(3-chloro-4-cyanophenoxy)cyclohexyl)-5-(4-(7-(2-(2,6-dioxopiperidin-3-yl)-1,3-dioxoisoindolin-5-yl)-2,7-diazaspiro[3.5]nonan-2-yl)piperidin-1-yl)pyrazine-2-carboxamide]
25 to 49	N#Cc1ccc(O[C@H]2CC[C@H](NC(=O)c3cnc(N4CCC(CN5CC6CN(c7cc8c(cc7F)C(=O)N(C7CCC(=O)NC7=O)C8=O)CC6C5)CC4)nc3)CC2)cc1Cl (some centres unmarked) [Compound 257, N-((1r,4r)-4-(3-chloro-4-cyanophenoxy)cyclohexyl)-2-(4-((5-(2-(2,6-dioxopiperidin-3-yl)-6-fluoro-1,3-dioxoisoindolin-5-yl)Hexahydropyrrolo[3,4-c]pyrrol-2(1H)-yl)methyl)piperidin-1-yl)pyrimidine-5-carboxamide]
50 to 79	N#Cc1ccc(O[C@H]2CC[C@H](NC(=O)c3cnc(N4CCC(CN5CC6CN(c7cc8c(cc7F)C(=O)N(C7CCC(=O)NC7=O)C8=O)CC6C5)CC4)cn3)CC2)cc1Cl (some centres unmarked) [Compound 255, N-((1r,4r)-4-(3-chloro-4-cyanophenoxy)cyclohexyl)-5-(4-((5-(2-(2,6-dioxopiperidin-3-yl)-6-fluoro-1,3-dioxoisoindolin-5-yl)Hexahydropyrrolo[3,4-c]pyrrol-2(1H)-yl)methyl)piperidin-1-yl)pyrazine-2-carboxamide]
